Molecules are shown by their SMILES.

This assay concerns the target T1, Fatty-acid amide hydrolase 1 (Homo sapiens, UniProt O00519).
T1 sequence (O00519 whole entry): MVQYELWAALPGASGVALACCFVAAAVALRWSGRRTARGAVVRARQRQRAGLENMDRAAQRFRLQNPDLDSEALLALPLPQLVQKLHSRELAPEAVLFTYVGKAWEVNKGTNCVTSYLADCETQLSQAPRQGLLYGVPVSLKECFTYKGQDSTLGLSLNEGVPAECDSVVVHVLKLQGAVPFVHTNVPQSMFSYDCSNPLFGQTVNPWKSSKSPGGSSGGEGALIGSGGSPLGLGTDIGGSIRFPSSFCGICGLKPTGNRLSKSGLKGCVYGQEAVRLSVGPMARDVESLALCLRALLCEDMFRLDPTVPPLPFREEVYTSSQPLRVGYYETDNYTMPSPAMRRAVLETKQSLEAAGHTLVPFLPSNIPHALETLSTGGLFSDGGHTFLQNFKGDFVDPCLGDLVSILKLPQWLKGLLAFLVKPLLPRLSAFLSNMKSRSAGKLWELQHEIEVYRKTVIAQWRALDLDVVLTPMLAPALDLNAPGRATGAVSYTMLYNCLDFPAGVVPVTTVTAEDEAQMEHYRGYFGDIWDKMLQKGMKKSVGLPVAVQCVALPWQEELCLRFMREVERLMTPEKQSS
The experiment in a line: Inhibition of human recombinant FAAH using (AMC) arachidonoyl amide as substrate preincubated for 5 mins followed by substrate addition and measured after 30 mins by fluorescence method.

A word on the IC50: it is the concentration that inhibits the measured activity by half. Take `O=C1/C(=N/c2nc3ccccc3[nH]2)c2ccccc2N1C(=O)c1ccc(Cl)cc1Cl`: the IC50 was 1490 nM.
